Test results as given in patent US6403816B1 (Dabur Research Foundation, priority 1997, dated 2002).

Assays:
ECV304 [1] = test: ECV304 endothelial cell proliferation, MTT assay; assay type: cell-based, human; conditions: concentration causing 50% cytotoxicity; MTT after 72 hours
Procedure: 30 μl of ECV304 cell suspension (50×10^4 cells/ml in RPMI 1640 containing 10% FBS) followed by 150 μl of medium was added to the wells of a 96-well tissue culture plate (Nunc, Denmark) and incubated (37° C., 5% CO2) overnight. […] Each concentration was plated in triplicates. 20μl of medium alone was added to control wells. After 72 hours of incubation an MTT assay (Mosmann, 1983) was performed and percentage inhibition in proliferation of treated cells was calculated with respect to control cells.

DU145 = test: Tumor cell cytotoxicity assay, prostate; assay type: cell-based; conditions: for Prostate ECS Ratio: ED50 DU145 / ED50 ECV304; for Prostate DU145 (ED50): concentration causing 50% cytotoxicity
From the text: (§1) The cytotoxicity assays for tumor cells have been described in detail in our application Ser. No. 09/040,856 filed in U.S. on Mar. 18, 1998.

L132 = test: Tumor cell cytotoxicity assay, lung; assay type: cell-based; conditions: for Lung ECS Ratio: ED50 L132 / ED50 ECV304; for Lung L132 (ED50): concentration causing 50% cytotoxicity
From the text: as §1

PA-1 = test: Tumor cell cytotoxicity assay, ovary; assay type: cell-based; conditions: for Ovary ECS Ratio: ED50 PA-1 / ED50 ECV304; for Ovary PA-1 (ED50): concentration causing 50% cytotoxicity
From the text: as §1

HT-29 = test: Tumor cell cytotoxicity assay, colon; assay type: cell-based; conditions: for Colon ECS Ratio: ED50 HT-29 / ED50 ECV304; for Colon HT-29 (ED50): concentration causing 50% cytotoxicity
From the text: as §1

ECV304 [2] = test: Tube-like-structure (TLS) formation of ECV304 cells on Matrigel; assay type: cell-based, human; conditions: 24-48 hours
Procedure: Matrigel (70 μl) was placed into each well of a 96-well culture plate at 4° C. and was allowed to polymerize by incubation at 37° C. for 30 min. ECV304 (1×10^4) cells were seeded on the Matrigel in 200 μl DMEM containing 10% FBS. […] Five different phase-contrast microscopic fields (4×) were viewed and total tube area of the tube-like-structures (TLS) measured using Video Pro 32 Image Analysis system. Percent reduction in total tube area was given as the mean of the data from five fields. Percent inhibition of TLS was calculated with reference to Controls(no drug).

SMILES | Endothelial ECV304 (ED50) (ECV304 [1]) [µg/mL] | Prostate ECS Ratio (DU145) | Prostate DU145 (ED50) (DU145) [µg/mL] | Lung ECS Ratio (L132) | Lung L132 (ED50) (L132) [µg/mL] | Ovary ECS Ratio (PA-1) | Ovary PA-1 (ED50) (PA-1) [µg/mL] | Colon ECS Ratio (HT-29) | Colon HT-29 (ED50) (HT-29) [µg/mL] | % reduction in total tube area (ECV304 [2]; 0.5 μg/ml) [%] | % reduction in total tube area (ECV304 [2]; 2 μg/ml) [%] | % reduction in total tube area (ECV304 [2]; 4 μg/ml) [%]
C=CC(=O)OC(=O)C12CCC(C(=C)C)C1C1CCC3C4(C)CCC(O)C(C)(C)C4CCC3(C)C1(C)CC2 (stereo not drawn) [MJ1101-RS] | 4.0 | >2.5 | >10 | 0.43 | 1.7 | >1 | >4 | 2.5 | >10 |  |  | 
C=C(C)C1CCC2(C(=O)O)CCC3(C)C(CCC4C5(C)CCC(=NNc6ccccc6)C(C)(C)C5CCC43C)C12 (stereo not drawn) [MJ353-RS] | 2.4 | 2.7 | 6.5 | 1.9 | 4.5 | 2.08 | 5 | 4.2 | >10 |  |  | 
CC(C)C1CCC2(C(=O)O)CCC3(C)C(CCC4C5(C)CCC(=NOCc6ccc([N+](=O)[O-])cc6)C(C)(C)C5CCC43C)C12 (stereo not drawn) [MJ1098-RS] | 0.6 | 2.5 | 1.5 | 2.1 | 1.3 | 2.7 | 1.6 | 4.3 | 2.6 | 15 | 7.5 | 10
CC(C)C1CCC2(C(=O)O)CCC3(C)C(CCC4C5(C)CCC(OC(=O)c6cc(F)cc(F)c6)C(C)(C)C5CCC43C)C12 (stereo not drawn) [MJ935-RS] | 0.7 | 4.5 | 3.2 | 1.7 | 1.2 |  |  | >14.3 | >10 |  |  | 
CC(C)C1CCC2(C(=O)O)CCC3(C)C(CCC4C5(C)CCC(N=Cc6ccc(F)cc6F)C(C)(C)C5CCC43C)C12 (stereo not drawn) [MJ1065-RS] | 2.4 | 1.04 | 2.5 | 1.4 | 3.4 | 0.54 | 1.3 | 2.04 | 4.9 | 23.4 | 16.7 | 46.7
C=C(C)C1CCC2(C(=O)O)CCC3(C)C(CCC4C5(C)CCC(OC(=O)Cc6cc(OC)ccc6OC)C(C)(C)C5CCC43C)C12 (stereo not drawn) [MJ1108-RS] | 1.8 | 0.55 | 1 | 2.5 | 4.6 |  |  | >5.6 | >10 |  |  | 
COC(=O)CCOC(=O)C12CCC(C(C)(Br)CBr)C1C1CCC3C4(C)CC(Br)C(=O)C(C)(C)C4CCC3(C)C1(C)CC2 (stereo not drawn) [MJ548-RS] | 2.5 | >4 | >10 | >4 | >10 | 1.56 | 3.9 | 4.0 | >10 |  |  | 
CC(C)C1CCC2(C(=O)O)CCC3(C)C(CCC4C5(C)CCC(OC(=O)c6ccccc6C(F)(F)F)C(C)(C)C5CCC43C)C12 (stereo not drawn) [MJ943-RS] | 2.6 | >1.5 | >4 | 1.5 | 4 | >1.53 | >4 | 3.84 | >10 |  |  | 
C=C(C)C1CCC2(C(=O)O)CCC3(C)C(CCC4C5(C)CCC(OC(=O)c6cccc(C(F)(F)F)c6)C(C)(C)C5CCC43C)C12 (stereo not drawn) [MJ939-RS] | 0.9 | >11.1 | >10 | 3.0 | 2.7 | >4.4 | >4 | >11.1 | >10 |  |  | 
C=C(C)C1CCC2(C(=O)O)CCC3(C)C(CCC4C5(C)CCC(OC(=O)c6ccc(CCCCCCC)cc6)C(C)(C)C5CCC43C)C12 (stereo not drawn) [MJ1138-RS] | 1.7 | >5.8 | >10 | 4.1 | 7 | >2.3 | >4 | >5.89 | >10 |  |  | 
COc1ccc(NNC2CCC3(C)C(CCC4(C)C3CCC3C5C(C(C)C)CCC5(C(=O)O)CCC34C)C2(C)C)cc1 (stereo not drawn) [MJ912-RS] | 0.4 | 21.1 | 8.5 | >10 | >4 |  |  | 0.87 | 0.35 |  |  | 
CC(C)C1CCC2(C(=O)O)CCC3(C)C(CCC4C5(C)CCC(N=Cc6ccc(F)c(F)c6)C(C)(C)C5CCC43C)C12 (stereo not drawn) [MJ998-RS] | 0.35 | 6.2 | 2.2 | 7.1 | 2.5 | 3.7 | 1.3 | 11.4 | 4 | 21.1 | 13.4 | 33.4
CC(C)C1CCC2(C(=O)O)CCC3(C)C(CCC4C5(C)CCC(NNc6ccccc6)C(C)(C)C5CCC43C)C12 (stereo not drawn) [MJ878-RS] | 0.5 | 19.8 | 9.9 | 1.6 | 0.8 | 7.0 | 3.5 | 3.5 | 1.75 |  |  | 
C=CC(=O)OC(=O)C12CCC(C(C)C)C1C1CCC3C4(C)CCC(O)C(C)(C)C4CCC3(C)C1(C)CC2 (stereo not drawn) [MJ1103-RS] | 2.0 | >2.0 | >4 | 2.0 | 4 | 0.75 | 1.5 | 5.0 | 10 |  |  | 
C=C(C)C1CCC2(C(=O)O)CCC3(C)C(CCC4C5(C)CCC(OC(=O)c6ccc(CCCCC)cc6)C(C)(C)C5CCC43C)C12 (stereo not drawn) [MJ1104-RS] | 1.9 | 1.05 | 2 | 3.1 | 5.9 | >2.1 | >4 | 1.84 | 3.5 |  |  | 
